The numbers were not newly measured in US20160220512A1, “MODIFIED RELEASE PHARMACEUTICAL FORMULATIONS” (RUBICON RESEARCH PRIVATE LIMITED, priority 2013, published 2016), which cites them from elsewhere.

The subject of data set [1] is N-methyl d-aspartate (NMDA) receptor. As to conditions: uncompetitive NMDA receptor antagonist.
The conditions of data set [2]: memantine and its salts.

For `CC12CC3CC(C)(C1)CC(N)(C3)C2` [Memantine, 1-amino-3,5-dimethyladamantane], in data set [1], the “affinity for the receptor” value is reported as “moderate affinity”. For the same molecule, in data set [2], the BCS classification result was “BCS Class I”, the permeability entry is listed as “highly permeable” and the solubility entry is reported as “highly soluble”.
